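Following 48 hours of exposure in 96-well plates, responses at five concentrations were used to interpolate endpoints linearly. TGI: concentration producing complete growth inhibition.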
Columns and labels:
Experiment in all cases: NCI tumour cell line growth inhibition, 48 h
[1] = system: KM20L2 colon
[2] = system: KM12 colon
[3] = system: UO-31 renal
[4] = system: A549 NSCLC
[5] = system: MALME-3M melanoma
[6] = system: OVCAR-3 ovarian
[7] = system: A498 renal
[8] = system: SK-MEL-2 melanoma
[9] = system: XF 498 CNS
[10] = system: DLD-1 colon
[11] = system: LXFL 529 NSCLC
[12] = system: UACC-62 melanoma
[13] = system: DMS 114 small cell lung
[14] = system: TK-10 renal
[15] = system: U251 CNS
[16] = system: RXF 393 renal
[17] = system: SF-539 CNS
[18] = system: 786-0 renal
[19] = system: MOLT-4 leukemia
[20] = system: HOP-92 NSCLC
[21] = system: OVCAR-5 ovarian
[22] = system: SK-MEL-5 melanoma
[23] = system: HL-60(TB) leukemia
[24] = system: OVCAR-8 ovarian
[25] = system: NCI-H460 lung
[26] = system: SK-MEL-28 melanoma
[27] = system: EKVX NSCLC
[28] = system: NCI-H23 lung
[29] = system: DMS 273 small cell lung
[30] = system: SN12C renal
[31] = system: SNB-78 CNS
[32] = system: IGROV1 ovarian
[33] = system: SK-OV-3 ovarian
[34] = system: CAKI-1 renal
[35] = system: SW-620 colon
[36] = system: HCT-116 colon
[37] = system: HCT-15 colon
[38] = system: M19-MEL melanoma
[39] = system: ACHN renal
[40] = system: SF-295 CNS
[41] = system: M14 melanoma
[42] = system: UACC-257 melanoma
[43] = system: HOP-62 NSCLC
[44] = system: HCC-2998 colon
[45] = system: K-562 leukemia
[46] = system: CCRF-CEM leukemia
[47] = system: SF-268 CNS
[48] = system: HOP-18 NSCLC
[49] = system: NCI-H226 lung
[50] = system: NCI-H522 lung
[51] = system: LOX IMVI melanoma
[52] = system: SR leukemia
[53] = system: OVCAR-4 ovarian
[54] = system: COLO 205 colon
[55] = system: SNB-75 CNS
[56] = system: SNB-19 CNS
[57] = system: RPMI-8226 leukemia
[58] = system: HT29 colon
[59] = system: RXF-631 renal

In the case of `Nc1nc2c(N)cc(C(F)(F)F)cc2nc1-c1ccccc1`, the TGI [1] is reported as > 100 µM, the TGI [2] is reported as > 100 µM and the TGI [3] is reported as > 100 µM. For the same compound, the TGI [4] was > 100 µM, the TGI [5] was > 100 µM and the TGI [6] was > 100 µM. The TGI [7] was > 100 µM, the TGI [8] was > 100 µM and the TGI [9] was > 100 µM. For the same compound, the TGI [10] was > 100 µM, the TGI [11] was > 100 µM and the TGI [12] was > 100 µM. The TGI [13] was > 100 µM, the TGI [14] was > 100 µM and the TGI [15] was > 100 µM. The TGI [16] was > 100 µM, the TGI [17] was > 100 µM and the TGI [18] was > 100 µM. For the same compound, the TGI [19] was > 100 µM, the TGI [20] was > 100 µM and the TGI [21] was > 100 µM. For the same compound, the TGI [22] was > 100 µM, the TGI [23] was > 100 µM and the TGI [24] was > 100 µM. For the same compound, the TGI [25] was > 100 µM, the TGI [26] was > 100 µM and the TGI [27] was > 100 µM. The TGI [28] was > 100 µM, the TGI [29] was > 100 µM and the TGI [30] was > 100 µM. The TGI [31] was > 100 µM, the TGI [32] was > 100 µM and the TGI [33] was > 100 µM. The TGI [34] was > 100 µM, the TGI [35] was > 100 µM and the TGI [36] was > 100 µM. For the same compound, the TGI [37] was > 100 µM, the TGI [38] was > 100 µM and the TGI [39] was > 100 µM. The TGI [40] was > 100 µM, the TGI [41] was > 100 µM and the TGI [42] was > 100 µM. For the same compound, the TGI [43] was > 100 µM, the TGI [44] was > 100 µM and the TGI [45] was > 100 µM. The TGI [46] was > 100 µM, the TGI [47] was > 100 µM and the TGI [48] was > 100 µM. The TGI [49] was > 100 µM, the TGI [50] was > 100 µM and the TGI [51] was > 100 µM. For the same compound, the TGI [52] was > 100 µM, the TGI [53] was > 100 µM and the TGI [54] was > 100 µM. The TGI [55] was 93.5 µM and the TGI [56] was > 100 µM.

`CCOC(=O)Cc1cc(OC)c(OC)cc1/C(Cl)=C(\CO)c1ccc(OC)c(OC)c1` was tested, and the TGI [1] was > 100 µM, the TGI [3] was > 100 µM and the TGI [4] was > 100 µM. For the same compound, the TGI [5] was > 100 µM, the TGI [6] was > 100 µM and the TGI [9] was 49.2 µM. The TGI [10] was > 100 µM, the TGI [12] was > 100 µM and the TGI [57] was > 100 µM. For the same compound, the TGI [58] was > 100 µM, the TGI [13] was > 100 µM and the TGI [14] was > 100 µM. The TGI [15] was > 100 µM, the TGI [16] was > 100 µM and the TGI [19] was > 100 µM. The TGI [20] was 98.1 µM, the TGI [22] was > 100 µM and the TGI [23] was > 100 µM. For the same compound, the TGI [24] was > 100 µM, the TGI [25] was > 100 µM and the TGI [26] was > 100 µM. For the same compound, the TGI [27] was > 100 µM, the TGI [28] was > 100 µM and the TGI [29] was > 100 µM. For the same compound, the TGI [30] was > 100 µM, the TGI [31] was > 100 µM and the TGI [32] was > 100 µM. For the same compound, the TGI [33] was > 100 µM, the TGI [34] was > 100 µM and the TGI [35] was > 100 µM. For the same compound, the TGI [36] was > 100 µM, the TGI [37] was > 100 µM and the TGI [38] was > 100 µM. For the same compound, the TGI [39] was > 100 µM, the TGI [40] was > 100 µM and the TGI [41] was > 100 µM. The TGI [42] was > 100 µM, the TGI [45] was > 100 µM and the TGI [46] was > 100 µM. The TGI [48] was > 100 µM, the TGI [59] was > 100 µM and the TGI [51] was > 100 µM. The TGI [53] was > 100 µM, the TGI [54] was > 100 µM and the TGI [55] was 54 µM. For the same compound, the TGI [56] was > 100 µM.

From PubChem BioAssay (NCI)
